In ChEMBL document CHEMBL1136688, “Synthesis and SAR of aminoalkoxy-biaryl-4-carboxamides: novel and selective histamine H3 receptor antagonists” (Bioorg Med Chem Lett, 2003):

Assays:
Histamine H3 receptor [1] = molecular target: Histamine H3 receptor (Rattus norvegicus, UniProt Q9QYN8); test: Binding affinity towards rat cortical H3 receptor
Histamine H3 receptor [2] = molecular target: Histamine H3 receptor (Homo sapiens, UniProt Q9Y5N1); test: Binding affinity for human recombinant H3 receptor
Histamine H3 receptor (Homo sapiens, UniProt Q9Y5N1), sequence (Q9Y5N1 whole entry): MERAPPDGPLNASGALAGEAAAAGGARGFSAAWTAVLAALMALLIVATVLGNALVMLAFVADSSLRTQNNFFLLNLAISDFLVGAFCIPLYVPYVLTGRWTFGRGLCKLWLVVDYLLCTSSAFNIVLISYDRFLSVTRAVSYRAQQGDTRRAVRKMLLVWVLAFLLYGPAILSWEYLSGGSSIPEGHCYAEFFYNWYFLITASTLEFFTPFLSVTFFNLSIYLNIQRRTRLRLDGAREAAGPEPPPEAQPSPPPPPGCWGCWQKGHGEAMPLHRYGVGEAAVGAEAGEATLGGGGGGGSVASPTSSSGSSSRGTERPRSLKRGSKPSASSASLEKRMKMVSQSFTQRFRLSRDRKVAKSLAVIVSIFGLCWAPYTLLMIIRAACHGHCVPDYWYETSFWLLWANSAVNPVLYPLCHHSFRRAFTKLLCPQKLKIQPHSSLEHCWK

Histamine H2 receptor = Histamine H2 receptor (Homo sapiens, UniProt P25021); test: Binding affinity towards human histamine (H2) receptor
Histamine H2 receptor, sequence (P25021 whole entry): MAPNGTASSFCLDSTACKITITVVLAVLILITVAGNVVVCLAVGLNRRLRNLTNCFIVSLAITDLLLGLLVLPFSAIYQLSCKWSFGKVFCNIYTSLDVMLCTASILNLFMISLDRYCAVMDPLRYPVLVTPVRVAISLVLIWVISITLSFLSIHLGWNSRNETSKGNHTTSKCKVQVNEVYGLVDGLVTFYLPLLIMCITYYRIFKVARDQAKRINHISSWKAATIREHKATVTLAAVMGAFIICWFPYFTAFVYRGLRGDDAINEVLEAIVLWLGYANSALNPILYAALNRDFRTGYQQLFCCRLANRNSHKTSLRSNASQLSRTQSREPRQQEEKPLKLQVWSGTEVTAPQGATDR

Histamine H1 receptor = Histamine H1 receptor (Homo sapiens, UniProt P35367); test: Binding affinity towards human histamine (H1) receptor
Histamine H1 receptor, sequence (P35367 whole entry): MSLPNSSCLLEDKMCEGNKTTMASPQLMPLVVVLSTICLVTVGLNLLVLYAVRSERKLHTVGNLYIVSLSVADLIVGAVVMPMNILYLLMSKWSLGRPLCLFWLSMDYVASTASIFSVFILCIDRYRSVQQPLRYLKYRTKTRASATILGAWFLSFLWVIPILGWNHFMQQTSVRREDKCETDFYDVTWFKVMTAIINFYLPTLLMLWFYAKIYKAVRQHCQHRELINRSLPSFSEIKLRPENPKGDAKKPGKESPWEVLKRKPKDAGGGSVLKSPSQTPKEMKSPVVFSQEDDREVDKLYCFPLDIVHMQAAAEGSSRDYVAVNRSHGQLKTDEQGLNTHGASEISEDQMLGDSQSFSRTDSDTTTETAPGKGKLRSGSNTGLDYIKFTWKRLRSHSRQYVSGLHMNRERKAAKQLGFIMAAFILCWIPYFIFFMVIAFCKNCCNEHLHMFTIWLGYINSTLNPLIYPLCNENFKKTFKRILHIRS

Histamine H3 receptor (Rattus norvegicus, UniProt Q9QYN8), sequence (Q9QYN8 whole entry): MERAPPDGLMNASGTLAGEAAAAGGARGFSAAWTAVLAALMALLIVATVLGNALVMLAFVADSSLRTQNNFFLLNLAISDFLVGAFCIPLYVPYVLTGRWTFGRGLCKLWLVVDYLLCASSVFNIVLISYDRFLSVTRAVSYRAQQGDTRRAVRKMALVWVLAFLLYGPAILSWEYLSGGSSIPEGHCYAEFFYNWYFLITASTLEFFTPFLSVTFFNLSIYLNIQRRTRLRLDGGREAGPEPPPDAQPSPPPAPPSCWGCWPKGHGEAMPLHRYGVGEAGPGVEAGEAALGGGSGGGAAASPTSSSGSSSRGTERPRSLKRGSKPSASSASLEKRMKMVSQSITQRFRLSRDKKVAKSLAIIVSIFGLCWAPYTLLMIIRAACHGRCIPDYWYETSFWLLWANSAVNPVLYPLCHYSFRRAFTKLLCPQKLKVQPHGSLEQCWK

Row | Compound | Ki (Histamine H3 receptor [1]) | Ki (Histamine H3 receptor [2]) | Ki (Histamine H2 receptor) | Ki (Histamine H1 receptor)
1 | C[C@H]1CC[C@H](C)N1C(=O)c1ccc(-c2ccc(OCCCN3CC[C@H](N(C)C)C3)cc2)cc1 | 17.4 nM | 4.37 nM | – | –
2 | O=C(c1ccc(-c2ccc(OCCCN3CC[C@H](O)C3)cc2)cc1)N1CCOCC1 | 32.4 nM | 6.17 nM | – | –
3 | C[C@H]1CC[C@H](C)N1CCCOc1ccc(-c2ccc(C(=O)N3CCCC3)cc2)cc1 | 5.13 nM | 0.692 nM | – | –
4 | O=C(c1ccc(-c2ccc(OCCCN3CCOCC3)cc2)cc1)N1CCCC1 | 178 nM | 40.7 nM | – | –
5 | O=C(c1ccc(-c2ccc(OCCCN3CCCC3)cc2)cc1)N1CCCC1 | 6.61 nM | 1.12 nM | > 1910 nM | > 1910 nM
6 | CC(C)NCCCOc1ccc(-c2ccc(C(=O)N3[C@@H](C)CC[C@@H]3C)cc2)cc1 | 219 nM | 229 nM | – | –
7 | C[C@H]1CC[C@H](C)N1CCCOc1ccc(-c2ccc(C(=O)N3[C@@H](C)CC[C@@H]3C)cc2)cc1 | – | 0.977 nM | – | –
8 | CC1CCCN1C(=O)c1ccc(-c2ccc(OCCCN3CC[C@H](O)C3)cc2)cc1 (some centres not stated) | 25.7 nM | 8.32 nM | – | –
9 | CC1CCN(CCCOc2ccc(-c3ccc(C(=O)N4CCCC4C)cc3)cc2)CC1 (configuration not stated) | 2.82 nM | 3.72 nM | – | –
10 | C[C@H]1CC[C@H](C)N1C(=O)c1ccc(-c2ccc(OCCCN3CCOCC3)cc2)cc1 | 115 nM | 37.2 nM | – | –
11 | CC(C)NCCCOc1ccc(-c2ccc(C(=O)N3CCOCC3)cc2)cc1 | 129 nM | 32.4 nM | – | –
12 | CC1CCN(C(=O)c2ccc(-c3ccc(OCCCN4CC[C@@H](N(C)C)C4)cc3)cc2)CC1 | 29.5 nM | 3.89 nM | – | –
13 | CN(C)[C@@H]1CCN(CCCOc2ccc(-c3ccc(C(=O)N4CCOCC4)cc3)cc2)C1 | 27.5 nM | 5.5 nM | – | –
14 | CC1CCN(CCCOc2ccc(-c3ccc(C(=O)N4CCC(C)CC4)cc3)cc2)CC1 | 20.9 nM | 10.7 nM | – | –
15 | CCN(CC)CCCOc1ccc(-c2ccc(C(=O)N3[C@@H](C)CC[C@@H]3C)cc2)cc1 | 13.8 nM | 5.13 nM | – | –
16 | CC(C)(C)CCC#C[C@@H]1C[C@H]1c1c[nH]cn1 [CIPRALISANT] | 0.195 nM | 2.14 nM | – | –
17 | CC(C)NC(=O)c1ccc(-c2ccc(OCCCN3[C@@H](C)CC[C@@H]3C)cc2)cc1 | 2.82 nM | 0.851 nM | – | –
18 | CCN(CC)CCCOc1ccc(-c2ccc(C(=O)NC(C)C)cc2)cc1 | 16.2 nM | 6.17 nM | – | –
19 | CCN(CC)C(=O)c1ccc(-c2ccc(OCCCN3CC[C@H](O)C3)cc2)cc1 | 42.7 nM | 8.13 nM | – | –
20 | CCN(CC)CCCOc1ccc(-c2ccc(C(=O)N3CCCC3)cc2)cc1 | 12.9 nM | 3.02 nM | – | –
21 | CC1CCN(C(=O)c2ccc(-c3ccc(OCCCNC(C)C)cc3)cc2)CC1 | 479 nM | 182 nM | – | –
22 | CC1CCN(C(=O)c2ccc(-c3ccc(OCCCN4CCOCC4)cc3)cc2)CC1 | 70.8 nM | 23.4 nM | – | –
23 | CCN(CC)CCCOc1ccc(-c2ccc(C(=O)N3CCC(C)CC3)cc2)cc1 | 8.32 nM | 3.47 nM | – | –

Row | Compound | Ki (Histamine H3 receptor [1]) | Ki (Histamine H3 receptor [2]) | Ki (Histamine H2 receptor) | Ki (Histamine H1 receptor)
24 | CN(C)[C@@H]1CCN(CCCOc2ccc(-c3ccc(C(=O)N4CCCC4)cc3)cc2)C1 | 18.6 nM | 2.88 nM | – | –
25 | CC1CCCN1C(=O)c1ccc(-c2ccc(OCCCN3CC[C@H](N(C)C)C3)cc2)cc1 (some centres not stated) | 21.4 nM | 6.46 nM | – | –
26 | O=C(c1ccc(-c2ccc(OCCCN3CC[C@H](O)C3)cc2)cc1)N1CCCC1 | 33.1 nM | 6.46 nM | – | –
27 | CC1CCN(CCCOc2ccc(-c3ccc(C(=O)N4CCCC4)cc3)cc2)CC1 | 10.2 nM | 3.63 nM | – | –
28 | CC1CCN(C(=O)c2ccc(-c3ccc(OCCCN4[C@@H](C)CC[C@@H]4C)cc3)cc2)CC1 | 2.95 nM | 0.603 nM | – | –
29 | CC(C)NCCCOc1ccc(-c2ccc(C(=O)N3CCCC3C)cc2)cc1 (configuration not stated) | 42.7 nM | 9.77 nM | – | –
30 | CCN(CC)C(=O)c1ccc(-c2ccc(OCCCNC(C)C)cc2)cc1 | 407 nM | 110 nM | – | –
31 | CC1CCCN1C(=O)c1ccc(-c2ccc(OCCCN3CCOCC3)cc2)cc1 (configuration not stated) | 112 nM | 24.5 nM | – | –
32 | CC1CCCN1C(=O)c1ccc(-c2ccc(OCCCN3[C@@H](C)CC[C@@H]3C)cc2)cc1 (some centres not stated) | 1.02 nM | 0.776 nM | – | –
33 | CCN(CC)C(=O)c1ccc(-c2ccc(OCCCN3CCOCC3)cc2)cc1 | 97.7 nM | 16.2 nM | – | –
34 | CC(C)N(C)C(=O)c1ccc(-c2ccc(OCCCN3CC[C@H](O)C3)cc2)cc1 | 28.8 nM | 8.13 nM | – | –
35 | CCN(CC)CCCOc1ccc(-c2ccc(C(=O)N3CCOCC3)cc2)cc1 | 8.91 nM | 2.4 nM | – | –
36 | CC(C)NC(=O)c1ccc(-c2ccc(OCCCN3CCOCC3)cc2)cc1 | 135 nM | 38.9 nM | – | –
37 | C[C@H]1CC[C@H](C)N1C(=O)c1ccc(-c2ccc(OCCCN3CC[C@H](O)C3)cc2)cc1 | 57.5 nM | 11.2 nM | – | –
38 | CCN(CC)C(=O)c1ccc(-c2ccc(OCCCN3[C@@H](C)CC[C@@H]3C)cc2)cc1 | – | 0.776 nM | – | –
39 | CC1CCN(CCCOc2ccc(-c3ccc(C(=O)N4[C@@H](C)CC[C@@H]4C)cc3)cc2)CC1 | 3.63 nM | 4.68 nM | – | –
40 | CC1CCN(CCCOc2ccc(-c3ccc(C(=O)N4CCOCC4)cc3)cc2)CC1 | 8.71 nM | 7.24 nM | – | –
41 | CC1CCN(CCCOc2ccc(-c3ccc(C(=O)NC(C)C)cc3)cc2)CC1 | 3.8 nM | 2.09 nM | – | –
42 | CCN(CC)C(=O)c1ccc(-c2ccc(OCCCN3CCC(C)CC3)cc2)cc1 | 9.12 nM | 4.79 nM | – | –
43 | O=C(c1ccc(-c2ccc(OCCCN3CCOCC3)cc2)cc1)N1CCOCC1 | 52.5 nM | 18.2 nM | – | –
44 | CCN(CC)CCCOc1ccc(-c2ccc(C(=O)N3CCCC3C)cc2)cc1 (configuration not stated) | 7.24 nM | 2.14 nM | – | –
45 | CCN(CC)C(=O)c1ccc(-c2ccc(OCCCN3CC[C@H](N(C)C)C3)cc2)cc1 | 28.2 nM | 6.92 nM | – | –
46 | CC1CCN(C(=O)c2ccc(-c3ccc(OCCCN4CC[C@H](O)C4)cc3)cc2)CC1 | 30.9 nM | 6.92 nM | – | –
